Source: paper PMC12084609, “Structural insights into small-molecule agonist recognition and activation of complement receptor C3aR” (The EMBO Journal, 2025)
Residue numbers refer to the chain shown, from its start. Values joined by “and” are separate entries in the source; they are usually repeats but may differ in a detail not shown here. Equal entries are not always repeated. Where two headings read alike, the source gives them in different places.

What was measured:
Assay type in all cases: cell-based
C3aR I102^3.32A = target: T1, C3aR I102^3.32A (Homo sapiens, UniProt Q16581, I102A); experiment: GloSensor-based cAMP assay, C3aR mutant I102A
T1 construct: expressed in transfected cells; host or cells: HEK293T
T1 sequence (Q16581 1-482 I102A): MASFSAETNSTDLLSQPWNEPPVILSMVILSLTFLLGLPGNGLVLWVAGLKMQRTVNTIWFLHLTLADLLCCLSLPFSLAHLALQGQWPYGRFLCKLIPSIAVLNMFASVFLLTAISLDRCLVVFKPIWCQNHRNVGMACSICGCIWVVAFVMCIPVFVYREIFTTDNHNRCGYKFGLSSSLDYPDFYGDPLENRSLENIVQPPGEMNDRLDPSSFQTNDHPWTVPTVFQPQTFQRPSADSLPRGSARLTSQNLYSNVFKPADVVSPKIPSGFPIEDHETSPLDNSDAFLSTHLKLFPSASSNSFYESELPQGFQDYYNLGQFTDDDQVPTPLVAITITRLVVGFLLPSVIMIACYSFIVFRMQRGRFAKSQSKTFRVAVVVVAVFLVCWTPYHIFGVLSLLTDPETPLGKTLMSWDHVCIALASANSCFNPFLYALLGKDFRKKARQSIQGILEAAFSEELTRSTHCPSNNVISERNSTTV
Experimental: (§1) HEK293T cells were seeded on 6-well plates (NEST) and transfected with pGlosensor™-22F plasmids (Promega) and pcDNA3.1 plasmids encoding C3aR or its mutants an with N-terminal FLAG tag. After 48 h, cells were detached with Accutase solution (Sigma-Aldrich) and washed with PBS, and resuspended in assay buffer (CO2-independent medium with 0.5 mg mL^−1D-luciferin). 100,000–200,000 cells were seeded on 96-well white bottom plates (SPL) and incubated at 37 °C for 45 min followed by 45 min incubation at room temperature. After 90 min of incubation, basal luminescence signals were recorded. In total, 25 μl of test ligand with various concentrations and 1 μM Forskolin (Sigma-Aldrich) were treated to the cells and luminescence signals were measured by Tristar 2 LB 942 multimode reader (Berthold). […] Relative luminescence unit (%) was calculated with the signal of wells treated with vehicle as 0% and the signal of wells treated with 1 μM Forskolin as 100% (DiRaddo et al, [2014]). Nonlinear regression was performed using a three-parameter logistic equation.

C3aR WT = target: T2, C3aR WT (Homo sapiens, UniProt Q16581); experiment: GloSensor-based cAMP assay, WT C3aR (HEK293T); conditions: for remaining activity at 0.0001 µM / remaining activity at 10 pM: HEK-293T; for IC50: WT C3aR
T2 construct: expressed in transfected cells; host or cells: HEK293T
T2 sequence (Q16581 1-482): T1 sequence (Q16581 1-482 I102A) with A102I
Experimental: as §1

C3aR V103^3.33A = target: T3, C3aR V103^3.33A (Homo sapiens, UniProt Q16581, V103A); experiment: GloSensor-based cAMP assay, C3aR mutant V103A
T3 construct: expressed in transfected cells; host or cells: HEK293T
T3 sequence (Q16581 1-482 V103A): T1 sequence (Q16581 1-482 I102A) with A102I, V103A
Experimental: as §1

For `Cc1cc(C(c2ccc(Cl)cc2)c2ccc(Cl)cc2)sc1C(=O)N[C@@H](CCCNC(=N)N)C(=O)O` [JR14a, reference compound], the remaining activity at 1 µM (C3aR I102^3.32A; I102A, Log[JR14a (M)] -6, single replicates, read-out: cAMP response (% Forskolin)) was 11.4%, the remaining activity at 0.1 µM (C3aR I102^3.32A; I102A, Log[JR14a (M)] -7, single replicates, read-out: cAMP response (% Forskolin)) was 12.3% and the remaining activity at 0.01 µM (C3aR I102^3.32A; I102A, Log[JR14a (M)] -8, single replicates, read-out: cAMP response (% Forskolin)) was 52.6%. The remaining activity at 0.001 µM (C3aR I102^3.32A; I102A, Log[JR14a (M)] -9, single replicates, read-out: cAMP response (% Forskolin)) was 79.2%, the remaining activity at 0.0001 µM (C3aR I102^3.32A; I102A, Log[JR14a (M)] -10, single replicates, read-out: cAMP response (% Forskolin)) was 97.7% and the remaining activity at 10 pM (C3aR I102^3.32A; I102A, Log[JR14a (M)] -11, single replicates, read-out: cAMP response (% Forskolin)) was 104%. For the same compound, the “ΔpIC50 ± SE of Diff.” value (C3aR I102^3.32A; I102^3.32A relative to WT C3aR) was -0.13 ± 0.07, the IC50 (C3aR I102^3.32A; IC50, I102^3.32A, dose-response plot) was 7.05 nM and the IC50 (C3aR I102^3.32A; pIC50 (Replicate), I102^3.32A, individual replicates) was 7.76 nM and 9.12 nM and 4.68 nM. It also gave an IC50 (C3aR I102^3.32A; pIC50 ± SEM (Mean), I102^3.32A, mean of independent experiments) of 6.92 nM, a remaining activity at 0.0001 µM (C3aR WT; read-out: cAMP response (% Forskolin), Log[ligand (M)] -10, individual replicates) of 93.3% and a remaining activity at 10 pM (C3aR WT; read-out: cAMP response (% Forskolin), Log[ligand (M)] -11, individual replicates) of 95.3%. For the same compound, the remaining activity at 0.0001 µM (C3aR WT; read-out: cAMP response (% Forskolin), WT, Log[JR14a (M)] -10, single replicates) was 93.3%, the remaining activity at 10 pM (C3aR WT; read-out: cAMP response (% Forskolin), WT, Log[JR14a (M)] -11, single replicates) was 95.3% and the IC50 (C3aR WT; decrease in cAMP levels, read-out: IC50) was 4 nM. For the same compound, the IC50 (C3aR WT; individual replicates, read-out: pIC50 (Replicate) (converted)) was 6.31 nM and 3.98 nM and 5.01 nM, the “mode of action at C3aR” value (C3aR WT; from BRET and cAMP accumulation assays) was “agonist” and the IC50 (C3aR WT; pIC50 (Replicate), individual replicates) was 2.63 nM and 3.09 nM and 7.08 nM (2×) and 5.75 nM (2×) and 11.5 nM and 8.13 nM and 2.45 nM (2×) and 1.78 nM. The IC50 (C3aR WT; pIC50 Value, Figure EV1B numerical data, curve fit) was 3.89 nM, the IC50 (C3aR WT; pIC50 ± SEM (Mean), 1 μM Forskolin, mean of independent experiments) was 4.57 nM and the “Span Value” (C3aR WT; span of cAMP response (% Forskolin) curve, Figure EV1B numerical data) was 84.43. For the same compound, the “Mean Diff. of pIC50, WT vs. V103A” value (C3aR V103^3.33A; Dunnett's multiple comparisons test, WT minus mutant) was 0.201, the IC50 (C3aR V103^3.33A; IC50, V103^3.33A, dose-response plot) was 8.93 nM and the “ΔpIC50 ± SE of Diff.” value (C3aR V103^3.33A; V103^3.33A relative to WT C3aR) was -0.20 ± 0.05. The IC50 (C3aR V103^3.33A; pIC50 (Replicate), V103^3.33A, individual replicates) was 12.9 nM and 14.8 nM and 3.02 nM and the IC50 (C3aR V103^3.33A; pIC50 ± SEM (Mean), V103^3.33A, mean of independent experiments) was 8.32 nM.
